≈ marks a conversion by molar mass, not a printed value. Where two headings read alike, the source gives them in different places.

Assay [1] concerns all tested Gardnerella strains. The experiment in a line: MIC and MBC microbroth dilution, stated over all tested strains. The format is cell-based. Conditions: for MIC: Gardnerella. As to the method:
(§1) One of the main deficiencies in the treatment of BV is the high rate of recurrence in many women, which leads to repeated administration of antibiotics and concomitant destabilization of the microbiome and other side effects. The minimal inhibitory concentration (MIC) and minimal bactericidal concentration (MBC) on Gardnerella cells of the strains also used for the endolysin activity assays were then measured using the method described in Reference Example 6 and 7. […] Essentially, Gardnerella suspensions at 2.5×10^7 CFU/ml were incubated with the concentration of antibiotics as indicated and incubated for 48 h at 37° C. under anaerobic conditions. […] OD(610) was measured at the beginning and the end of the experiment. At the end of the experiment, 2 ul of each reaction mix was spotted on agar to determine the MBC.
(§2) The conditions under which MIC and MBC were measured are more rigorous than the standard.
(§3) Example 7—Activity assays of a representative (H2B10) of domain swapped endolysins on the growth in suspension of different Gardnerella strains. […] The conditions under which MBC was measured are more rigorous than the standard. […] In general, it is known, that antibiotics only insufficiently eradicate the Gardnerella biofilm, a hallmark of BV, which is one suspected reason for the reported very high recurrence rate of BV. Despite leaving residual viable biofilm, antibiotics wipe parts of the beneficial organisms of the vaginal microbiome which then opens an ecological niche for other pathogens, e.g. fungi.
Bacteria were plated from cryo stock on BD Choc Agar plates (Gardnerella) and incubated at 37° C. for 48 h under anaerobic conditions. Colonies were scraped from the plate, resuspended in Hardy Broth or NYC-III-HS-pH 5.0, and the suspension adjusted to OD (610 or 620 nm as indicated) 0.05. It has to be noted that two Tecan Microplate readers, having respectively a 610 nm or 620 nm filter, have been used interchangeably in the experiments. Although it doesn't make any difference for the experiments, the exact wavelength used is specified in each example. Antibiotics were prepared as 20× stocks for each of the required final concentrations. […] OD (610-620 as indicated) at the start of the reaction was measured, then the plate was incubated at 37° C. for 48 h under anaerobic conditions. After that, the OD (610-620 as indicated) was measured again for MIC determination, where MIC was defined as the lowest concentration of antibiotic where the OD (610-620 as indicated) was not above the level measured at the beginning of the experiment. […] After incubation, cell growth on each spot was evaluated, and the MBC defined as the lowest concentration of antibiotics where no bacteria grew on the plate.

The test system of assay [2] is G. swidsinskii (Gv_23). The experiment in a line: MIC and MBC microbroth dilution. The format is cell-based, Gardnerella swidsinskii. Conditions: for MIC / MBC: Gardnerella swidsinskii; for MIC: 48 h. The method, then:
as §1, §2, §3
(§4) Bacteria were plated from cryo stock on BD Choc Agar plates (Gardnerella) and incubated at 37° C. for 48 h under anaerobic conditions. Colonies were scraped from the plate, resuspended in Hardy Broth or NYC-III-HS-pH 5.0, and the suspension adjusted to OD (610 or 620 nm as indicated) 0.05. It has to be noted that two Tecan Microplate readers, having respectively a 610 nm or 620 nm filter, have been used interchangeably in the experiments. Although it doesn't make any difference for the experiments, the exact wavelength used is specified in each example. Antibiotics were prepared as 20× stocks for each of the required final concentrations. 95 μl of cell suspension was mixed with 5 μl antibiotics dilution in a 384-well plate. OD (610-620 as indicated) at the start of the reaction was measured, then the plate was incubated at 37° C. for 48 h under anaerobic conditions. After that, the OD (610-620 as indicated) was measured again for MIC determination, where MIC was defined as the lowest concentration of antibiotic where the OD (610-620 as indicated) was not above the level measured at the beginning of the experiment. After measuring OD, 2 μl of each well were spotted on a NYC-III+HS Agar plate. The plates were then incubated for further 48 h at 37° C. under anaerobic conditions. After incubation, cell growth on each spot was evaluated, and the MBC defined as the lowest concentration of antibiotics where no bacteria grew on the plate. The experiments were conducted in triplicate for each condition. In the second round of MIC and MBC experiments with antibiotics the Gardnerella cell suspension was adjusted to the McFarland standard 0.5 (approximately OD (610) 0.07) and then diluted 1:75 according to the CLSI (Clinical and Laboratory Standards Institute) standards. Antibiotics were prepared according to the CLSI standards and 50 μl of cell suspension was mixed in a 96-well plate with 50 μl antibiotics. Otherwise the MIC and MBC was determined as described above.

Assay [3] deals with G. leopoldii (Gv_11). The experiment in a line: MIC and MBC microbroth dilution. The format is cell-based, Gardnerella leopoldii. Conditions: for MIC / MBC: Gardnerella leopoldii; for MIC: 48 h. The method, then:
as §1, §2, §3, §4

[4] abbreviates: first round: […]10^7 CFU/ml, Hardy broth, 384-well, 48 h 37° C. anaerobic.
Setting [5] is: second round: 1×10^5-1×10^6 CFU/ml (CLSI), NYC-III broth, 96-well, 48 h anaerobic.
[6] abbreviates: second round: 1×10^5-1×10^6 CFU/ml (CLSI), NYC-III broth, 96-well.
[7] abbreviates: first round: 2.5×10^7 CFU/ml, minimal concentration fully eradicating the suspension.

For the compound `Cc1ncc([N+](=O)[O-])n1CCO` [Metronidazole], the minimum inhibitory concentration (MIC) in assay [1] (48 h, first round: […]10^7 CFU/ml, 48 h anaerobic (FIG. 14), read-out: MIC over all Gardnerella strains) was 64 to 128 µg/mL (≈ 374 to 748 µM); in assay [1] (second round: 1×10^5-1×10^6 CFU/ml (FIG. 15), read-out: MIC over all tested Gardnerella strains), 8 to 128 µg/mL (≈ 46.7 to 748 µM); in assay [2] (setting [4]), more than 128 µg/mL; in assay [2] (setting [5]), 32 µg/mL (≈ 187 µM); in assay [3] (setting [4]) it was more than 128 µg/mL; in assay [3] (setting [5]) it was 128 µg/mL (≈ 748 µM). Moreover, the “susceptibility of the Gardnerella strains, in words” value in assay [1] (MIC microbroth dilution) is reported as “resistant”. Also, the minimal bactericidal concentration (MBC) in assay [2] (setting [6]), in assay [2] (setting [7]), in assay [3] (setting [6]) and in assay [3] (setting [7]) was more than 128 µg/mL each time. For the same compound, the “resistance class of MIC, Metronidazole” value in assay [2] (first round) and in assay [3] (first round) was “R (>=32 μg/mi for Metronidazole)” each time. The “resistance class given with MBC, Metronidazole” value in assay [2] (second round) and in assay [3] (second round) was “R (>=32 μg/mi for Metronidazole)” in each case. Further, the “resistance class printed with MIC, Metronidazole” value in assay [2] (second round) and in assay [3] (second round) was “R (>=32 μg/mi for Metronidazole)” each time.
